Measured values: patent US6331555A, “Treatment of platelet derived growth factor related disorders such as cancers” (priority 1999, dated 2001)
Like-named read-outs stand apart in the source and are kept apart here.

Legend:
MCF7/HER2 = assay: Tumor cell line growth; assay type: cell-based; conditions: Homo sapiens, MCF7, 96 h; breast, 4 days
Description: (§1) The assay measures protein content of acid-fixed cells using the counterion binding dye sulforhodamine B (SRB, Sigma). […] For other cell lines, the cells (2000 cells/well in 100 μL) were introduced into wells immediately after dispensing the drug solutions. After 4 days (37° C., 5% CO2) the monolayers were washed 3 times with PBS and fixed with 200 μL ice-cold 10% TCA (Fisher Scientific), and kept at 4° C. for 60 min. The TCA was removed and the fixed monolayers were washed 5 times with tap water and allowed to dry completely at room temperature on absorbent paper. The cellular protein was stained for 10 min with 100 μL 0.4% SRB dissolved in 1% acetic acid. After 5 washes with tap water, the dye was solubilized in 10 mM Tris base (100 μL per well) and absorbance read at 570 nm on a Dynatech plate reader model MR5000. Growth inhibition data are expressed as a percentage of absorbance detected in control wells which were treated with 0.4% DMSO alone. DMSO controls were not different from cells grown in regular growth medium. IC50 values were determined using a four parameter curve fit function.
(§2) For K562, DlB, L1210, 7TDl, T27A, and Colo320 DM cells, an MTT assay was used to assess cell growth. […] The cells were incubated at 37° C. for 4 days in a humidified 7% CO2 atmosphere. At the end point, […] of MTT (5 mg/mL in PBS, Sigma) was added to each well. The plates were incubated at 37° C. for 4 hr followed by addition of […] of solubilization solution (20% w/v of SDS in 50% N, N-dimethylformamide, pH 4.7) to each well. The plates were incubated overnight in a sealed container with a humidified atmosphere. The absorbance was determined at 570 nm wavelength with a reference wavelength of 630 nm using an ELISA plate reader.

K562 = assay: Tumor cell line growth; assay type: cell-based; conditions: Homo sapiens, K562, 96 h; leukemia, 4 days
Description: as §1, §2

MCF7 = assay: Tumor cell line growth; assay type: cell-based; conditions: Homo sapiens, MCF7, 96 h; breast, 4 days
Description: as §1, §2

U87MG = assay: Tumor cell line growth; assay type: cell-based; conditions: Homo sapiens, U-87 MG, 96 h; glioma, 4 days
Description: as §1, §2

SKOV3 = assay: Tumor cell line growth; assay type: cell-based; conditions: Homo sapiens
Description: as §1, §2

SKOV3T = assay: Tumor cell line growth; assay type: cell-based; conditions: Homo sapiens
Description: as §1, §2

MDA MB 468 = assay: Tumor cell line growth; assay type: cell-based; conditions: Homo sapiens, MDA-MB-468, 96 h; breast, 4 days
Description: as §1, §2

U118MG = assay: Tumor cell line growth; assay type: cell-based; conditions: Homo sapiens, U-118-MG, 96 h; glioma, 4 days
Description: as §1, §2

PC3 = assay: Tumor cell line growth; assay type: cell-based; conditions: Homo sapiens, PC-3, 96 h; prostate, 4 days
Description: as §1, §2

U1242 = assay: Tumor cell line growth; assay type: cell-based; conditions: 96 h; glioma, 4 days
Description: as §1, §2

T98G = assay: Tumor cell line growth; assay type: cell-based; conditions: Homo sapiens, 96 h, glioma, 4 days
Description: as §1, §2

U373MG = assay: Tumor cell line growth; assay type: cell-based; conditions: Homo sapiens, U373 MG, 96 h; glioma, 4 days
Description: as §1, §2

SF763T = assay: Tumor cell line growth; assay type: cell-based; conditions: Homo sapiens, 96 h; glioma, 4 days
Description: as §1, §2

T47D = assay: Tumor cell line growth; assay type: cell-based; conditions: Homo sapiens, 96 h, breast, 4 days
Description: as §1, §2

SKBR3 = assay: Tumor cell line growth; assay type: cell-based; conditions: Homo sapiens, SK-BR-3, 96 h; breast, 4 days
Description: as §1, §2

MDA MB 361 = assay: Tumor cell line growth; assay type: cell-based; conditions: Homo sapiens, MDA-MB-361, 96 h; breast, 4 days
Description: as §1, §2

A172 = assay: Tumor cell line growth; assay type: cell-based; conditions: Homo sapiens, A 172, 96 h; glioma, 4 days
Description: as §1, §2

HBL100 = assay: Tumor cell line growth; assay type: cell-based; conditions: Homo sapiens, HBL-100, 96 h; breast, 4 days
Description: as §1, §2

U138MG = assay: Tumor cell line growth; assay type: cell-based; conditions: Homo sapiens, U138-MG, 96 h; glioma, 4 days
Description: as §1, §2

BT474 = assay: Tumor cell line growth; assay type: cell-based; conditions: Homo sapiens, BT-474, 96 h; breast, 4 days
Description: as §1, §2

BT549 = assay: Tumor cell line growth; assay type: cell-based; conditions: Homo sapiens, BT-549, 96 h; breast, 4 days
Description: as §1, §2

A375 = assay: Tumor cell line growth; assay type: cell-based; conditions: Homo sapiens, A-375, 96 h; melanoma, 4 days
Description: as §1, §2

C81-61 = assay: Tumor cell line growth; assay type: cell-based; conditions: Homo sapiens, C8161, 96 h; melanoma, 4 days
Description: as §1, §2

SF763 = assay: Xenograft in athymic mice; assay type: in vivo; conditions: xenografted athymic mice
Description: (§3) Cell lines were grown in appropriate medium (see Appendix 1). Cells were harvested at or near confluency with 0.05% Trypsin-EDTA and pelleted at 450×g for 10 min. Pellets were resuspended in sterile PBS or media (without FBS) to a particular concentration and the cells were implanted into the hindflank of mice. Tumor growth was measured over 3 to 6 weeks using venier calipers. Tumor volumes were calculated as a product of length×width×height unless otherwise indicated. P values were calculated using the Students' t-test.
(§4) PDGF-R expression was measured qualitatively using a western blot.

SF767 = assay: Xenograft in athymic mice; assay type: in vivo; conditions: xenografted athymic mice
Description: as §3, §4

LD10 = conditions: in vivo

Question: Which IC50 (MCF7/HER2) does the source give for Cc1oncc1C(=O)Nc1ccc(C(F)(F)F)cc1 [Compound A10, 5-methylisoxazole-4 carboxylic acid-(4-trifluromethyl)-anilide] here?
Answer: Its IC50 is 116 µM.

Question: And the IC50 (K562)?
Answer: Its IC50 is 26 µM.

Question: What about the IC50 (MCF7) of the same compound?
Answer: The IC50 was 288 µM.

Question: And the IC50 (U87MG)?
Answer: Its IC50 is 78 µM.

Question: What about the IC50 (SKOV3; SK-OV-3, 96 h, ovarian, 4 days, read-out: IC50) of the same compound?
Answer: Its IC50 is greater than 100 µM.

Question: What about the IC50 (SKOV3; SK-OV-3, PDGF-R expression -, read-out: SRB) of the same compound?
Answer: Its IC50 is greater than 100 µM.

Question: What about the IC50 (SKOV3T; 96 h, ovarian, 4 days, read-out: IC50) of the same compound?
Answer: The IC50 was 40 µM.

Question: And the IC50 (SKOV3T; PDGF-R expression ++, read-out: SRB)?
Answer: The IC50 was 50 µM.

Question: What about the IC50 (MDA MB 468) of the same compound?
Answer: The IC50 was 150 µM.

Question: And the IC50 (U118MG)?
Answer: The IC50 was 150 µM.

Question: And the IC50 (PC3)?
Answer: The IC50 was 46 µM.

Question: And the IC50 (U1242)?
Answer: Its IC50 is 19 µM.

Question: And the IC50 (T98G)?
Answer: Its IC50 is 62 µM.

Question: What about the IC50 (U373MG) of the same compound?
Answer: The IC50 was 115 µM.

Question: And the IC50 (SF763T)?
Answer: The IC50 was 0.8 µM.

Question: What about the IC50 (T47D) of the same compound?
Answer: Its IC50 is 195 µM.

Question: And the IC50 (SKBR3)?
Answer: Its IC50 is greater than 400 µM.

Question: And the IC50 (MDA MB 361)?
Answer: The IC50 was 200 µM.

Question: What about the IC50 (A172) of the same compound?
Answer: The IC50 was 32 µM.

Question: What about the IC50 (HBL100) of the same compound?
Answer: The IC50 was greater than 400 µM.

Question: And the IC50 (U138MG)?
Answer: Its IC50 is greater than 400 µM.

Question: What about the IC50 (BT474) of the same compound?
Answer: The IC50 was greater than 100 µM.

Question: And the IC50 (BT549)?
Answer: The IC50 was greater than 400 µM.

Question: And the IC50 (A375)?
Answer: The IC50 was 25 µM.

Question: What about the IC50 (C81-61) of the same compound?
Answer: Its IC50 is 40 µM.

Question: And the “In Vivo inhibition” value (SF763)?
Answer: The value was 35%.

Question: What about the “In Vivo inhibition” value (SF767) of the same compound?
Answer: The value was 18%.

Question: With c1ccc(-c2cnc3cc4ccccc4cc3n2)cc1 [Compound G22] as the compound, how does the LD10 (LD10) read?
Answer: The LD10 was 25 mg/kg.
